Structures can show the parent of a compound that is named as a salt.
Key:
[1] = target: T1, cloned human 5-HT6 receptor (Homo sapiens, UniProt P50406); experiment: 5-HT6 receptor binding assay ([3H]-LSD, SPA); conditions: membranes of Hela cells containing cloned human 5-HT6 receptor; [3H]-LSD radioligand; Ki from estimated IC50 by Cheng-Prusoff
T1 construct: host or cells: HeLa cells (G-418 selected); membranes prepared from them
Method: Growth of Cells and Membrane Preparation
Hela cells containing the cloned human 5-HT6 receptor were acquired from Dr. David R. Sibley's laboratory in National Institute of Health (see Sibley, D. R., J. Neurochemistr, 66, 47-56, 1996). Cells were grown in high glucose Dulbecco's modified Eagle's medium, supplemented with L-glutamine, 0.5% sodium pyruvate, 0.3% penicillin-streptomycin, 0.025% G-418 and 5% Gibco fetal bovine serum and then were harvested, when confluent, in cold phosphate buffered saline.
Harvested intact cells were washed once in cold phosphate-buffered saline. The cells were pelleted and resuspended in 100 ml of cold 50 mM Tris, 5 mM EDTA and 5 mM EGTA, pH 7.4. Homogenization was with a Vir Tishear generator, 4 cycles for 30 seconds each at setting 50. The homogenized cells were centrifuged at […] for 10 minutes and the supernatant was removed. The pellet was resuspended in 100 ml of the above buffer and rehomogenized for 2 cycles. The rehomogenized cells were then centrifuged at […] for 10 minutes and the supernatant was removed. The combined supernatant (200 ml) was centrifuged at 23,000 RPM (80,000×g) for 1 hour in a Beckman Rotor (42.1 Ti). […]
The radioligand binding assay used [^3H]-lysergic acid diethylamide (LSD). […] The plates were then loaded into counting cassettes and counted in a Wallac MicroBeta Trilux scintillation counter. […]

T1 sequence (P50406 whole entry): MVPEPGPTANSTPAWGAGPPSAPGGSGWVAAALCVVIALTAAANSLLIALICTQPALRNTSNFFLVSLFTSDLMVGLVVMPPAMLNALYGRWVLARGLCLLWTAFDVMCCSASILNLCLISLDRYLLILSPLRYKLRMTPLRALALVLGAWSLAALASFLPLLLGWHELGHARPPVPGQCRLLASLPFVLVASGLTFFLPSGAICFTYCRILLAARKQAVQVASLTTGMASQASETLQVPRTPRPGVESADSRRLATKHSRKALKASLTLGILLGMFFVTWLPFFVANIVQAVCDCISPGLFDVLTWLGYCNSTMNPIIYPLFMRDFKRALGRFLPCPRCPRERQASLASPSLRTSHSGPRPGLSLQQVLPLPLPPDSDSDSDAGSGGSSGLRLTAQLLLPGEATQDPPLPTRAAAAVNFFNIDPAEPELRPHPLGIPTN

SMILES | melting point [°C] | Ki [1] [nM]
CCN(CC)CCOc1cccc2c1c1cccc3c1n2C(c1ccccc1)CO3 (centres unmarked) (as salt: maleic acid salt) [Example 3, N,N-Diethyl-2-[(1-phenyl-1,2-dihydro[1,4]oxazino[2,3,4-jk]carbazol-7-yl)oxy]-1-ethanamine and its maleic acid salt] | 105 to 107 | 
NCCOc1cccc2c1c1cccc3c1n2[C@H](c1ccccc1)CO3 (as salt: sulfonic acid salt) [Example 2, (R)−)-[(1-Phenyl-1,2-dihydro[1,4]oxazino[2,3,4-jk]carbazol-7-yl)oxy]ethanamine and its methanesulfonic acid salt] | 236 | 
NCCOc1cccc2c1c1cccc3c1n2[C@H](c1ccccc1)CO3 [Example 2, (R)−)-[(1-Phenyl-1,2-dihydro[1,4]oxazino[2,3,4-jk]carbazol-7-yl)oxy]ethanamine and its methanesulfonic acid salt] |  | 1.8
CC(C)NCCOc1cccc2c1c1cccc3c1n2C(c1ccccc1)CO3 (centres unmarked) [Example 5, N-isopropyl-N-{2-[(1-phenyl-1,2-dihydro[1,4]oxazino[2,3,4-jk]carbazol-7-yl)oxy]ethyl}amine and its maleic acid salt] |  | 7.8

Now from value to molecule, other results behind:

melting point [°C] | SMILES | Ki [1] [nM]
105 | CCNCCOc1cccc2c1c1cccc3c1n2C(c1ccccc1)CO3.O=C(O)/C=C\C(=O)O (centres unmarked) [Example 6, N-Ethyl-2-[(1-phenyl-1,2-dihydro[1,4]oxazino[2,3,4-jk]carbazol-7-yl)oxy]-ethanamine and its maleic acid salt] | 
72 | c1ccc(C2COc3cccc4c5c(OCCN6CCNCC6)cccc5n2c34)cc1 (centres unmarked) [Example 13, 1-Phenyl-1,2-dihydro[1,4]oxazino[2,3,4-jk]carbazol-7-yl 2-(1-piperazinyl)ethyl ether] | 
57 | CN1CCN(CCOc2cccc3c2c2cccc4c2n3C(c2ccccc2)CO4)CC1 (centres unmarked) [Example 14, 2-(4-Methyl-1-piperazinyl)ethyl 1-phenyl-1,2-dihydro[1,4]oxazino[2,3,4-jk]carbazol-7-yl ether] | 
117 to 118 | CN(C)CCOc1cccc2c1c1cccc3c1n2C(c1ccccc1)CO3 (centres unmarked) [Example 18, N,N-dimethyl-2-[(1-phenyl-1,2-dihydro[1,4]oxazino[2,3,4-jk]carbazol-7-yl)oxy]-1-ethanamine] | 

Source: patent US6932961B1, “Oxazinocarbazoles for the treatment of CNS diseases” (Pharmacia & Upjohn Company, priority 2002, dated 2005)
